Experimental data published in ChEMBL document CHEMBL1201862, “PubChem BioAssay data set” (2004).
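Cultured in 96-well plates, cells were exposed to test compound for 48 hours across five concentrations. The concentration for 50% growth inhibition is given as GI50.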 The source made the active and inactive calls. No stated cut-off is given here; in the data, active = GI50 up to about 1.1 µM and inactive = higher.

What was measured:
Assay in all cases: NCI tumour cell line growth inhibition, 48 h
[1] = test system: 786-0
[2] = test system: A498
[3] = test system: A549
[4] = test system: ACHN
[5] = test system: BT-549
[6] = test system: CAKI-1
[7] = test system: CCRF-CEM
[8] = test system: COLO 205
[9] = test system: DU-145
[10] = test system: EKVX
[11] = test system: HCT-116
[12] = test system: HCT-15
[13] = test system: HL-60
[14] = test system: HOP-62
[15] = test system: HOP-92
[16] = test system: HT-29
[17] = test system: Hs-578T
[18] = test system: IGROV-1
[19] = test system: K562
[20] = test system: KM12
[21] = test system: LOX IMVI
[22] = test system: M14
[23] = test system: MCF7
[24] = test system: MDA-MB-231
[25] = test system: MDA-MB-435
[26] = test system: MDA-N
[27] = test system: MOLT-4
[28] = test system: Malme-3M
[29] = test system: NCI-H23
[30] = test system: NCI-H460
[31] = test system: NCI/ADR-RES
[32] = test system: OVCAR-3
[33] = test system: OVCAR-4
[34] = test system: OVCAR-5
[35] = test system: OVCAR-8
[36] = test system: PC-3
[37] = test system: RPMI-8226
[38] = test system: RXF 393
[39] = test system: SF-268
[40] = test system: SF-295
[41] = test system: SF-539
[42] = test system: SK-MEL-28
[43] = test system: SK-MEL-2
[44] = test system: SK-MEL-5
[45] = test system: SK-OV-3
[46] = test system: SN12C
[47] = test system: SNB-19
[48] = test system: SNB-75
[49] = test system: SR
[50] = test system: SW-620
[51] = test system: T47D
[52] = test system: TK-10
[53] = test system: U-251
[54] = test system: UACC-257
[55] = test system: UACC-62
[56] = test system: UO-31

SMILES: OC1(c2ccc(Cl)cc2)c2c(ccc3c2OCO3)C2=NCCN21 (stereo unspecified)
- GI50 [1]: 62.2 µM (inactive)
- GI50 [2]: 20.1 µM (inactive)
- GI50 [3]: 70.3 µM (inactive)
- GI50 [4]: 38 µM (inactive)
- GI50 [5]: 32.3 µM (inactive)
- GI50 [6]: 46.9 µM (inactive)
- GI50 [7]: 37.9 µM (inactive)
- GI50 [8]: 18.3 µM (inactive)
- GI50 [9]: 97.7 µM (inactive)
- GI50 [10]: 75 µM (inactive)
- GI50 [11]: 36.8 µM (inactive)
- GI50 [12]: 52.7 µM
- GI50 [13]: 38.8 µM (inactive)
- GI50 [14]: 58.3 µM (inactive)
- GI50 [15]: 16.7 µM (inactive)
- GI50 [16]: 29.6 µM (inactive)
- GI50 [17]: 20.8 µM (inactive)
- GI50 [18]: 20.5 µM (inactive)
- GI50 [19]: 26.2 µM (inactive)
- GI50 [20]: 19.6 µM (inactive)
- GI50 [21]: 30.5 µM (inactive)
- GI50 [22]: 16.6 µM (inactive)
- GI50 [23]: 33.7 µM (inactive)
- GI50 [24]: 28.4 µM (inactive)
- GI50 [25]: 28.1 µM (inactive)
- GI50 [26]: 28.6 µM (inactive)
- GI50 [27]: 40.1 µM (inactive)
- GI50 [28]: 1.23 µM (inactive)
- GI50 [29]: 63 µM (inactive)
- GI50 [30]: 40.6 µM (inactive)
- GI50 [31]: > 100 µM (inactive)
- GI50 [32]: 54.6 µM (inactive)
- GI50 [33]: 45.8 µM (inactive)
- GI50 [34]: 65.3 µM (inactive)
- GI50 [35]: 67.5 µM (inactive)
- GI50 [36]: 42.7 µM (inactive)
- GI50 [37]: 19.2 µM (inactive)
- GI50 [38]: 26.7 µM (inactive)
- GI50 [39]: 45 µM (inactive)
- GI50 [40]: 36.6 µM (inactive)
- GI50 [41]: 36.1 µM (inactive)
- GI50 [42]: 17.9 µM (inactive)
- GI50 [43]: 21.2 µM (inactive)
- GI50 [44]: 17.2 µM (inactive)
- GI50 [45]: 68.1 µM (inactive)
- GI50 [46]: 53.7 µM (inactive)
- GI50 [47]: 73.6 µM (inactive)
- GI50 [48]: 6.14 µM (inactive)
- GI50 [49]: 21.5 µM (inactive)
- GI50 [50]: 97.9 µM (inactive)
- GI50 [51]: 31.7 µM (inactive)
- GI50 [52]: 15 µM (inactive)
- GI50 [53]: 44.9 µM (inactive)
- GI50 [54]: 19.1 µM (inactive)
- GI50 [55]: 19 µM (inactive)
- GI50 [56]: 38.5 µM (inactive)
